These are literature values, as cited in US11918665B2, “Method for dyeing keratinous material, comprising the use of an organosilicon compound, a colored effect pigment and a sealing reagent I” (Henkel AG & Co. KGaA, priority 2019, dated 2024).

For this series the following is noted: 25° C.

Take `O=S(=O)([O-])c1ccc(N=Nc2c(O)ccc3ccccc23)cc1.[Na+]` [Acid Orange 7, sodium salt of 4-[(2-hydroxy-1-naphthyl)azo]benzene sulphonate]: the solubility in water entry is given as “more than 7 g/L”.

For `Nc1cc(S(=O)(=O)[O-])cc2cc(S(=O)(=O)[O-])c(N=Nc3ccccc3)c(O)c12.[Na+].[Na+]` [Acid Red 33, disodium salt of 5-amino-4-hydroxy-3-(phenylazo)-naphthalene-2,7-disulphonate], the solubility in water is 2500 µg/mL.

For the compound `O=C([O-])c1c(Cl)c(Cl)c(Cl)c(Cl)c1-c1c2c(Br)cc(=O)c(Br)c-2oc2c(Br)c(O)cc(Br)c12.O=C([O-])c1c(Cl)c(Cl)c(Cl)c(Cl)c1-c1c2c(Br)cc(=O)c(Br)c-2oc2c(Br)c(O)cc(Br)c12.[Na+].[Na+]` [Acid Red 92, disodium salt of 3,4,5,6-tetrachloro-2-(1,4,5,8-tetrabromo-6-hydroxy-3-oxoxanthen-9-yl)benzoic acid], the solubility in water result is “greater than 10 g/L”.

For `O=C([O-])C1=NN(c2ccc(S(=O)(=O)[O-])cc2)C(=O)C1N=Nc1ccc(S(=O)(=O)[O-])cc1.[Na+].[Na+].[Na+]` (stereo not shown) [Acid Yellow 23, trisodium salt of 4,5-dihydro-5-oxo-1-(4-sulfophenyl)-4-((4-sulfophenyl)azo)-1H-pyrazole-3-carboxylic acid], the “solubility in water (in words)” value was “highly soluble in water”.
